Data on 24 molecules can be found in US9464084B2, “P2X7 modulators” (Janssen Pharmaceutica NV, priority 2013, dated 2016).

This test concerns the target P2X7 (Homo sapiens (Human), UniProt Q99572). The test can be described thus: P2X7 antagonism in human PBMCs (LPS + Bz-ATP induced IL-1β release, ELISA).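 Further: PBMCs from donor human blood, with a further 1.5 h incubation of the cells in the assay.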 Type of test: cell-based. Conditions: compound 10 μM, LPS 30 ng/ml, Bz-ATP 0.5 mM. For orientation: In an ELISA, binding on a coated surface is turned into a signal by an enzyme label.

Sequence of P2X7 (Q99572 whole entry): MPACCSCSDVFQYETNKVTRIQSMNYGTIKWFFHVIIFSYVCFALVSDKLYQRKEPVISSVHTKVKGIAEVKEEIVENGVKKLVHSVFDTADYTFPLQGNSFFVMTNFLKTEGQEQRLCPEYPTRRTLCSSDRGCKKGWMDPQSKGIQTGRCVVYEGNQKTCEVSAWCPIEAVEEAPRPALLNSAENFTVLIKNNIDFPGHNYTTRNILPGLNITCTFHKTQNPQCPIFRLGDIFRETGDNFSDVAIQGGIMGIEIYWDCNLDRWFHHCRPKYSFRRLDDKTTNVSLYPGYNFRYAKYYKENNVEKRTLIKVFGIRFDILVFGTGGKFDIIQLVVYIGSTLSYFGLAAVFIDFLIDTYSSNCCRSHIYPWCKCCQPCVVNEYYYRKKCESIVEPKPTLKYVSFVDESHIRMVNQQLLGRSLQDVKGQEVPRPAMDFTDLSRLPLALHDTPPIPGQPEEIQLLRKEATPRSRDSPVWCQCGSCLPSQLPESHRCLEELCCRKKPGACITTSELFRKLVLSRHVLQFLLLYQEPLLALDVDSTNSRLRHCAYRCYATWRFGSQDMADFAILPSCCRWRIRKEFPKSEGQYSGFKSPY

Regarding `Cc1c(C(=O)N2CCc3c(nnn3-c3ncccn3)[C@H]2C)cccc1C(F)(F)F` (single isomer, unassigned) [Example 188, (R*)-(4-methyl-1-(pyrimidin-2-yl)-6,7-dihydro-1H-[1,2,3]triazolo[4,5-c]pyridin-5(4H)-yl)(2-methyl-3-(trifluoromethyl)phenyl)methanone], the “PBMC 10 μM (% control)” value was −0.7 % control.

Regarding `C[C@@H]1c2nnn(-c3ncc(F)cn3)c2CCN1C(=O)c1cccc(C(F)(F)F)c1F` (single isomer, unassigned) [Example 190, (R*)-(2-fluoro-3-(trifluoromethyl)phenyl)(1-(5-fluoropyrimidin-2-yl)-4-methyl-6,7-dihydro-1H-[1,2,3]triazolo[4,5-c]pyridin-5(4H)-yl)methanone], the “PBMC 10 μM (% control)” value is 7.1 % control. As for `C[C@@H]1c2ncn(-c3ncc(F)cn3)c2CCN1C(=O)c1cccc(C(F)(F)F)c1Cl` (single isomer, unassigned) [Example 193, (R*)-(2-Chloro-3-(trifluoromethyl)phenyl)(1-(5-fluoropyrimidin-2-yl)-4-methyl-6,7-dihydro-1H-imidazo[4,5-c]pyridin-5(4H)-yl)methanone], the “PBMC 10 μM (% control)” value is on record as 1.4 % control.

For the molecule `C[C@H]1c2ncn(-c3ncc(F)cn3)c2CCN1C(=O)c1cccc(C(F)(F)F)c1Cl` (single isomer, unassigned) [Example 194, (S*)-(2-Chloro-3-(trifluoromethyl)phenyl)(1-(5-fluoropyrimidin-2-yl)-4-methyl-6,7-dihydro-1H-imidazo[4,5-c]pyridin-5(4H)-yl)methanone], the “PBMC 10 μM (% control)” value is −12.8 % control. Take `Cc1c(C(=O)N2CCc3c(nnn3-c3ncccn3)[C@@H]2C)cccc1C(F)(F)F` (single isomer, unassigned) [Example 197, (S*)-(4-methyl-1-(pyrimidin-2-yl)-6,7-dihydro-1H-[1,2,3]triazolo[4,5-c]pyridin-5(4H)-yl)(2-methyl-3-(trifluoromethyl)phenyl)methanone]: the “PBMC 10 μM (% control)” value is given as 2.1 % control.

For the molecule `C[C@@H]1Cc2c(nnn2-c2ncc(F)cn2)CN1C(=O)c1cccc(C(F)(F)F)c1Cl` (single isomer, unassigned) [Example 201, (6R*)-5-{[2-Chloro-3-(trifluoromethyl)phenyl]carbonyl}-1-(5-fluoropyrimidin-2-yl)-6-methyl-4,5,6,7-tetrahydro-1H-[1,2,3]triazolo[4,5-c]pyridine], the “PBMC 10 μM (% control)” value was determined as 20.4 % control.

Take `C[C@H]1Cc2c(nnn2-c2ncc(F)cn2)CN1C(=O)c1cccc(C(F)(F)F)c1Cl` (single isomer, unassigned) [Example 202, (6S*)-5-{[2-Chloro-3-(trifluoromethyl)phenyl]carbonyl}-1-(5-fluoropyrimidin-2-yl)-6-methyl-4,5,6,7-tetrahydro-1H-[1,2,3]triazolo[4,5-c]pyridine]: the “PBMC 10 μM (% control)” value is recorded as 24.1 % control. In the case of `C[C@@H]1Cc2c(nnn2-c2ncc(F)cn2)CN1C(=O)c1cccc(Cl)c1Cl` (single isomer, unassigned) [Example 204, (6R*)-5-[(2,3-Dichlorophenyl)carbonyl]-1-(5-fluoropyrimidin-2-yl)-6-methyl-4,5,6,7-tetrahydro-1H-[1,2,3]triazolo[4,5-c]pyridine], the “PBMC 10 μM (% control)” value was found to be 180.6 % control. Take `C[C@H]1Cc2c(nnn2-c2ncc(F)cn2)CN1C(=O)c1cccc(Cl)c1Cl` (single isomer, unassigned) [Example 205, (6S*)-5-[(2,3-Dichlorophenyl)carbonyl]-1-(5-fluoropyrimidin-2-yl)-6-methyl-4,5,6,7-tetrahydro-1H-[1,2,3]triazolo[4,5-c]pyridine]: the “PBMC 10 μM (% control)” value was found to be 17.1 % control. For `Cc1c(C(=O)N2Cc3nnn(-c4ncc(F)cn4)c3C[C@H]2C)cccc1C(F)(F)F` (single isomer, unassigned) [Example 207, (6R*)-1-(5-Fluoropyrimidin-2-yl)-6-methyl-5-{[2-methyl-3-(trifluoromethyl)phenyl]carbonyl}-4,5,6,7-tetrahydro-1H-[1,2,3]triazolo[4,5-c]pyridine], the “PBMC 10 μM (% control)” value amounted to 45.0 % control. `Cc1c(C(=O)N2Cc3nnn(-c4ncc(F)cn4)c3C[C@@H]2C)cccc1C(F)(F)F` (single isomer, unassigned) [Example 208, (6S*)-1-(5-Fluoropyrimidin-2-yl)-6-methyl-5-{[2-methyl-3-(trifluoromethyl)phenyl]carbonyl}-4,5,6,7-tetrahydro-1H-[1,2,3]triazolo[4,5-c]pyridine]: the “PBMC 10 μM (% control)” value came out at 20.9 % control. To `C[C@@H]1Cc2c(nnn2-c2cnccn2)CN1C(=O)c1cccc(C(F)(F)F)c1Cl` (single isomer, unassigned) [Example 211, (6R*)-5-{[2-Chloro-3-(trifluoromethyl)phenyl]carbonyl}-6-methyl-1-pyrazin-2-yl-4,5,6,7-tetrahydro-1H-[1,2,3]triazolo[4,5-c]pyridine] belongs 28.5 % control; to `C[C@H]1Cc2c(nnn2-c2cnccn2)CN1C(=O)c1cccc(C(F)(F)F)c1Cl` (single isomer, unassigned) [Example 212, (6S*)-5-{[2-Chloro-3-(trifluoromethyl)phenyl]carbonyl}-6-methyl-1-pyrazin-2-yl-4,5,6,7-tetrahydro-1H-[1,2,3]triazolo[4,5-c]pyridine], 17.4 % control. For the molecule `C[C@@H]1Cc2c(nnn2-c2ncc(F)cn2)CN1C(=O)c1ccc(F)c(Cl)c1Cl` (single isomer, unassigned) [Example 214, (6R*)-5-[(2,3-Dichloro-4-fluorophenyl)carbonyl]-1-(5-fluoropyrimidin-2-yl)-6-methyl-4,5,6,7-tetrahydro-1H-[1,2,3]triazolo[4,5-c]pyridine], the “PBMC 10 μM (% control)” value was 8.2 % control. For the molecule `C[C@H]1Cc2c(nnn2-c2ncc(F)cn2)CN1C(=O)c1ccc(F)c(Cl)c1Cl` (single isomer, unassigned) [Example 215, (6S*)-5-[(2,3-Dichloro-4-fluorophenyl)carbonyl]-1-(5-fluoropyrimidin-2-yl)-6-methyl-4,5,6,7-tetrahydro-1H-[1,2,3]triazolo[4,5-c]pyridine], the “PBMC 10 μM (% control)” value is recorded as 2.7 % control. For `C[C@@H]1Cc2c(nnn2-c2ncc(F)cn2)CN1C(=O)c1ccc(Cl)c(F)c1Cl` (single isomer, unassigned) [Example 217, (6R*)-5-[(2,4-Dichloro-3-fluorophenyl)carbonyl]-1-(5-fluoropyrimidin-2-yl)-6-methyl-4,5,6,7-tetrahydro-1H-[1,2,3]triazolo[4,5-c]pyridine], the “PBMC 10 μM (% control)” value is on record as 60.8 % control. Regarding `C[C@H]1c2n[nH]c(-c3ncc(F)cn3)c2CCN1C(=O)c1cccc(C(F)(F)F)c1Cl` (single isomer, unassigned) [Example 224, (S*)-(2-chloro-3-(trifluoromethyl)phenyl)(3-(5-fluoropyrimidin-2-yl)-7-methyl-4,5-dihydro-2H-pyrazolo[3,4-c]pyridin-6(7H)-yl)methanone], the “PBMC 10 μM (% control)” value was found to be 103.3 % control. To `Cc1cccc(-n2nnc3c2CCN(C(=O)c2cccc(C(F)(F)F)c2Cl)[C@@H]3C)n1` (single isomer, unassigned) [Example 226, (R*)-(2-chloro-3-(trifluoromethyl)phenyl)(4-methyl-1-(6-methylpyridin-2-yl)-6,7-dihydro-1H-[1,2,3]triazolo[4,5-c]pyridin-5(4H)-yl)methanone] belongs 58.0 % control; to `C[C@H]1Cc2c(nnn2-c2ncc(F)cn2)CN1C(=O)c1ccnc(C(F)(F)F)c1F` (single isomer, unassigned) [Example 228, (S*)-(3-fluoro-2-(trifluoromethyl)pyridin-4-yl)(1-(5-fluoropyrimidin-2-yl)-6-methyl-6,7-dihydro-1H-[1,2,3]triazolo[4,5-c]pyridin-5(4H)-yl)methanone], 0.1 % control. For the molecule `C[C@H]1c2nnn(-c3ncc(F)cn3)c2CCN1C(=O)c1ccnc(C(F)(F)F)c1F` (single isomer, unassigned) [Example 229, (S*)-(3-fluoro-2-(trifluoromethyl)pyridin-4-yl)(1-(5-fluoropyrimidin-2-yl)-4-methyl-6,7-dihydro-1H-[1,2,3]triazolo[4,5-c]pyridin-5(4H)-yl)methanone], the “PBMC 10 μM (% control)” value turned out to be 116.4 % control. For the molecule `Cc1ccc(-n2nnc3c2CCN(C(=O)c2cccc(C(F)(F)F)c2Cl)[C@H]3C)nc1` (single isomer, unassigned) [Example 239, (S*)-(2-chloro-3-(trifluoromethyl)phenyl)(4-methyl-1-(5-methylpyridin-2-yl)-6,7-dihydro-1H-[1,2,3]triazolo[4,5-c]pyridin-5(4H)-yl)methanone], the “PBMC 10 μM (% control)” value stood at 86.9 % control.

In the case of `COCCn1ccc(-n2nnc3c2CCN(C(=O)c2cccc(C(F)(F)F)c2Cl)[C@@H]3C)n1` (single isomer, unassigned) [Example 248, (R*)-(2-Chloro-3-(trifluoromethyl)phenyl)(1-(1-(2-methoxyethyl)-1H-pyrazol-3-yl)-4-methyl-6,7-dihydro-1H-[1,2,3]triazolo[4,5-c]pyridin-5(4H)-yl)methanone], the “PBMC 10 μM (% control)” value is recorded as 74.3 % control. As for `COCCn1ccc(-n2nnc3c2CCN(C(=O)c2cccc(C(F)(F)F)c2Cl)[C@H]3C)n1` (single isomer, unassigned) [Example 249, (S*)-(2-Chloro-3-(trifluoromethyl)phenyl)(1-(1-(2-methoxyethyl)-1H-pyrazol-3-yl)-4-methyl-6,7-dihydro-1H-[1,2,3]triazolo[4,5-c]pyridin-5(4H)-yl)methanone], the “PBMC 10 μM (% control)” value worked out at 5.1 % control. The figure for `C[C@H]1c2nnn(-c3ncccn3)c2CCN1C(=O)c1cccc(C(F)(F)F)c1F` (single isomer, unassigned) [Example 270, (S*)-(2-fluoro-3-(trifluoromethyl)phenyl)(4-methyl-1-(pyrimidin-2-yl)-6,7-dihydro-1H-[1,2,3]triazolo[4,5-c]pyridin-5(4H)-yl)methanone] is 98.5 % control.
